Test results reported in PMC5263201, “GABAA receptor occupancy by subtype selective GABAAα2,3 modulators: PET studies in humans” (Psychopharmacology, 2016).
Read-outs that look alike come from different tables or passages of the source.

Key:
GABAA α2β3γ2 = tested on: GABAA α2β3γ2; parameters: method as in Christian et al 2015; details: 1µM test concentration, GABA EC10, % of 1 µM diazepam, mean ±SE, ref Christian et al 2015; cited from earlier work
GABAA α3β3γ2 = tested on: GABAA α3β3γ2; parameters: method as in Christian et al 2015; details: 1µM test concentration, GABA EC10, % of 1 µM diazepam, mean ±SE, ref Christian et al 2015; cited from earlier work
GABAA α5β3γ2 [1] = tested on: GABAA α5β3γ2; parameters: method as in Christian et al 2015; details: 1µM test concentration, GABA EC10, % of 1 µM diazepam, mean ±SE, ref Christian et al 2015; cited from earlier work
GABAA α5β3γ2 [2] = biological target: GABAA α5β3γ2; parameters: method as in Christian et al 2015; details: recombinant Sf9 membranes α5β3γ2; [3H]flunitrazepam; mean (SD); ref Christian et al 2015; read-out: Affinity in vitro at BZ binding site (Ki) α5; cited from earlier work
P-gp = P-gp (Homo sapiens, UniProt P08183); test: P-gp substrate assessment; format: in vitro ADME
[3] = parameters: method as in AstraZeneca Single Ascending Dose studies; details: ref AstraZeneca Single Ascending Dose studies, cited from earlier work
[4] = Binding to human plasma proteins; format: in vitro ADME; details: read-out: unbound fraction of the total plasma drug
GABAA α1β2γ2 [5] = biological target: GABAA α1β2γ2; parameters: method as in Christian et al 2015; details: recombinant Sf9 membranes α1β2γ2; [3H]flunitrazepam; mean (SD); ref Christian et al 2015; read-out: Affinity in vitro at BZ binding site (Ki) α1; cited from earlier work
GABAA α1β2γ2 [6] = tested on: GABAA α1β2γ2; parameters: method as in Christian et al 2015; details: 1µM test concentration, GABA EC10, % of 1 µM diazepam, mean ±SE, ref Christian et al 2015; cited from earlier work
[7] = parameters: method as in AstraZeneca Single Ascending Dose studies; details: 6 subjects, ref AstraZeneca Single Ascending Dose studies, cited from earlier work
[8] = tested on: generalized anxiety disorder; parameters: method as in Chen et al. 2014, ClinTrials.gov; details: ref Chen et al. 2014, ClinTrials.gov; cited from earlier work
[9] = AZD6280 1mg, Part A, 8 subjects
[10] = AZD6280 5mg, Part B, 8 subjects
[11] = AZD6280 20mg, Part A, 8 subjects
[12] = AZD6280 30mg, Part B, 7 subjects
[13] = AZD6280 40mg, Part A, 8 subjects
[14] = AZD6280 60mg, Part B, 8 subjects

Sequence of P-gp (P08183 whole entry): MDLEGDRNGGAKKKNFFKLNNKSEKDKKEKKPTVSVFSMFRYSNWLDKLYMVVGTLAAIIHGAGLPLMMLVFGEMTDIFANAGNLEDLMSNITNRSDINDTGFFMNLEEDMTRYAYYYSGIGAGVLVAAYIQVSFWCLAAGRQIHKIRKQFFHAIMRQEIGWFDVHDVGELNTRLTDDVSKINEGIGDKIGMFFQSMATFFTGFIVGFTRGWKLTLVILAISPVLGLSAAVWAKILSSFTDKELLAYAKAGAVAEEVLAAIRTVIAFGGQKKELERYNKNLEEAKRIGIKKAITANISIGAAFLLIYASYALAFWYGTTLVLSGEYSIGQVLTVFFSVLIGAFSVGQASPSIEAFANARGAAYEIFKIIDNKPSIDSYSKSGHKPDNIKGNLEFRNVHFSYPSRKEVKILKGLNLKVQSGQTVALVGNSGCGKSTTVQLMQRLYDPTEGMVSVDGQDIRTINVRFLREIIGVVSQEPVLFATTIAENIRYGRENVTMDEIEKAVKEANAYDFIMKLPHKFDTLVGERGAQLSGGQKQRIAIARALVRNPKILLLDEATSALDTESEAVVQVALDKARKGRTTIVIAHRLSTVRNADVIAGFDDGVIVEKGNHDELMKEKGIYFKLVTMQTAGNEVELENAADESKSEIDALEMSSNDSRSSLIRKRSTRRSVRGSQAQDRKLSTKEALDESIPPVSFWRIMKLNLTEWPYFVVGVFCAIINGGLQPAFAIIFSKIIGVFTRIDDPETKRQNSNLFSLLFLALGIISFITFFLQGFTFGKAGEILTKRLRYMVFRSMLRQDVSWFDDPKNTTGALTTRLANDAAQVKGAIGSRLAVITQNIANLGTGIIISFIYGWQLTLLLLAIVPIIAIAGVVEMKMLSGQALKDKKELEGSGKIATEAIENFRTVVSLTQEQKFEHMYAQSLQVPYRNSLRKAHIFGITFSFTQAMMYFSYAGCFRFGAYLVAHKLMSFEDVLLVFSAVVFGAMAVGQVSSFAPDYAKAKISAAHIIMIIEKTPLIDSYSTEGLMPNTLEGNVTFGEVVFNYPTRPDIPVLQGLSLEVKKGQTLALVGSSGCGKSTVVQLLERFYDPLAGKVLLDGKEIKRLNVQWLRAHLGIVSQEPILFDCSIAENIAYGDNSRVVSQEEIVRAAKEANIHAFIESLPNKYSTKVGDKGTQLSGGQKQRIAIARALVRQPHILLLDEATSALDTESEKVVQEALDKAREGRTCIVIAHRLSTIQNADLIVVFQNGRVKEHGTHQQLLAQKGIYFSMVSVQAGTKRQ

In the case of CCCNC(=O)c1nnc2c(-c3cc(OC)ccc3OC)cccc2c1N [AZD6280], the “Relative efficacy (%DZ) α2” value (GABAA α2β3γ2) is listed as 36±4%, the “Relative efficacy (%DZ) α3” value (GABAA α3β3γ2) is listed as 34±3% and the “Relative efficacy (%DZ) α5” value (GABAA α5β3γ2 [1]) is listed as 8±2%. The Ki (GABAA α5β3γ2 [2]) was 1680 ± 650 nM, the P-gp substrate (P-gp) was “Neither compound is a P-gp substrate” and the “Number of subjects with at least one adverse event” value (“Number of subjects” for short) [3, 9] was 2 (25) Number (%) of patients. For the same compound, the abnormal coordination [3, 9] was 0 Number (%) of patients, the depersonalisation [3, 9] was 0 Number (%) of patients and the dizziness [3, 9] was 0 Number (%) of patients. For the same compound, the dreamy state [3, 9] was 0 Number (%) of patients, the euphoric mood [3, 9] was 0 Number (%) of patients and the headache [3, 9] was 1 (13) Number (%) of patients. The nystagmus [3, 9] was 0 Number (%) of patients, the somnolence [3, 9] was 0 Number (%) of patients and the abnormal coordination [3, 10] was 0 Number (%) of patients. The depersonalisation [3, 10] was 0 Number (%) of patients, the dizziness [3, 10] was 2 (25) Number (%) of patients and the dreamy state [3, 10] was 0 Number (%) of patients. The euphoric mood [3, 10] was 0 Number (%) of patients, the headache [3, 10] was 1 (13) Number (%) of patients and the nystagmus [3, 10] was 0 Number (%) of patients. For the same compound, the somnolence [3, 10] was 1 (13) Number (%) of patients, the “Number of subjects” value [3, 11] was 6 (75) Number (%) of patients and the abnormal coordination [3, 11] was 0 Number (%) of patients. The depersonalisation [3, 11] was 0 Number (%) of patients, the dizziness [3, 11] was 0 Number (%) of patients and the dreamy state [3, 11] was 0 Number (%) of patients. For the same compound, the euphoric mood [3, 11] was 0 Number (%) of patients, the headache [3, 11] was 2 (25) Number (%) of patients and the nystagmus [3, 11] was 0 Number (%) of patients. The somnolence [3, 11] was 1 (13) Number (%) of patients, the “Number of subjects” value [3, 12] was 2 (29) Number (%) of patients and the abnormal coordination [3, 12] was 0 Number (%) of patients. The depersonalisation [3, 12] was 0 Number (%) of patients, the dizziness [3, 12] was 0 Number (%) of patients and the dreamy state [3, 12] was 0 Number (%) of patients. For the same compound, the euphoric mood [3, 12] was 1 (14) Number (%) of patients, the headache [3, 12] was 0 Number (%) of patients and the nystagmus [3, 12] was 0 Number (%) of patients. The somnolence [3, 12] was 2 (29) Number (%) of patients, the “Number of subjects” value [3, 13] was 6 (75) Number (%) of patients and the abnormal coordination [3, 13] was 0 Number (%) of patients. The depersonalisation [3, 13] was 0 Number (%) of patients, the dizziness [3, 13] was 0 Number (%) of patients and the dreamy state [3, 13] was 0 Number (%) of patients. For the same compound, the euphoric mood [3, 13] was 1 (13) Number (%) of patients, the headache [3, 13] was 0 Number (%) of patients and the nystagmus [3, 13] was 0 Number (%) of patients. The somnolence [3, 13] was 3 (38) Number (%) of patients, the “Number of subjects” value [3, 14] was 7 (88) Number (%) of patients and the abnormal coordination [3, 14] was 1 (13) Number (%) of patients. The depersonalisation [3, 14] was 1 (13) Number (%) of patients, the dizziness [3, 14] was 2 (25) Number (%) of patients and the dreamy state [3, 14] was 1 (13) Number (%) of patients. For the same compound, the euphoric mood [3, 14] was 0 Number (%) of patients, the headache [3, 14] was 1 (13) Number (%) of patients and the nystagmus [3, 14] was 1 (13) Number (%) of patients. The somnolence [3, 14] was 3 (38) Number (%) of patients, the fraction unbound [4] was ~0.1 and the Ki (GABAA α1β2γ2 [5]) was 0.5 ± 0.2 nM. For the same compound, the “Relative efficacy (%DZ) α1” value (GABAA α1β2γ2 [6]) was 9±3%.

For CCCNC(=O)c1nnc2c(-c3c(F)cccc3OC)cccc2c1N [AZD7325], the “Number of subjects” value ([7]; AZD7325 0.2 mg) is given as 2 (33) Number (%) of patients, the anxiety ([7]; AZD7325 0.2 mg) is given as 0 Number (%) of patients and the dizziness ([7]; AZD7325 0.2 mg) is given as 0 Number (%) of patients. The euphoric mood ([7]; AZD7325 0.2 mg) was 0 Number (%) of patients, the hypoaesthesia ([7]; AZD7325 0.2 mg) was 0 Number (%) of patients and the paraesthesia ([7]; AZD7325 0.2 mg) was 0 Number (%) of patients. The somnolence ([7]; AZD7325 0.2 mg) was 0 Number (%) of patients, the “Number of subjects” value ([7]; AZD7325 1mg) was 2 (33) Number (%) of patients and the anxiety ([7]; AZD7325 1mg) was 0 Number (%) of patients. For the same compound, the dizziness ([7]; AZD7325 1mg) was 0 Number (%) of patients, the euphoric mood ([7]; AZD7325 1mg) was 0 Number (%) of patients and the hypoaesthesia ([7]; AZD7325 1mg) was 0 Number (%) of patients. For the same compound, the paraesthesia ([7]; AZD7325 1mg) was 0 Number (%) of patients, the somnolence ([7]; AZD7325 1mg) was 0 Number (%) of patients and the “Number of subjects” value ([7]; AZD7325 5mg) was 4 (67) Number (%) of patients. The anxiety ([7]; AZD7325 5mg) was 0 Number (%) of patients, the dizziness ([7]; AZD7325 5mg) was 0 Number (%) of patients and the euphoric mood ([7]; AZD7325 5mg) was 0 Number (%) of patients. The hypoaesthesia ([7]; AZD7325 5mg) was 1 (17) Number (%) of patients, the paraesthesia ([7]; AZD7325 5mg) was 0 Number (%) of patients and the somnolence ([7]; AZD7325 5mg) was 1 (17) Number (%) of patients. The “Number of subjects” value ([7]; AZD7325 10 mg) was 2 (33) Number (%) of patients, the anxiety ([7]; AZD7325 10 mg) was 0 Number (%) of patients and the dizziness ([7]; AZD7325 10 mg) was 2 (33) Number (%) of patients. For the same compound, the euphoric mood ([7]; AZD7325 10 mg) was 0 Number (%) of patients, the hypoaesthesia ([7]; AZD7325 10 mg) was 0 Number (%) of patients and the paraesthesia ([7]; AZD7325 10 mg) was 0 Number (%) of patients. For the same compound, the somnolence ([7]; AZD7325 10 mg) was 0 Number (%) of patients, the “Number of subjects” value ([7]; AZD7325 20 mg) was 1 (17) Number (%) of patients and the anxiety ([7]; AZD7325 20 mg) was 0 Number (%) of patients. The dizziness ([7]; AZD7325 20 mg) was 0 Number (%) of patients, the euphoric mood ([7]; AZD7325 20 mg) was 1 (17) Number (%) of patients and the hypoaesthesia ([7]; AZD7325 20 mg) was 0 Number (%) of patients. For the same compound, the paraesthesia ([7]; AZD7325 20 mg) was 0 Number (%) of patients, the somnolence ([7]; AZD7325 20 mg) was 0 Number (%) of patients and the “Number of subjects” value ([7]; AZD7325 30 mg) was 3 (50) Number (%) of patients. The anxiety ([7]; AZD7325 30 mg) was 0 Number (%) of patients, the dizziness ([7]; AZD7325 30 mg) was 1 (17) Number (%) of patients and the euphoric mood ([7]; AZD7325 30 mg) was 1 (17) Number (%) of patients. The hypoaesthesia ([7]; AZD7325 30 mg) was 0 Number (%) of patients, the paraesthesia ([7]; AZD7325 30 mg) was 0 Number (%) of patients and the somnolence ([7]; AZD7325 30 mg) was 1 (17) Number (%) of patients. For the same compound, the “Number of subjects” value ([7]; AZD7325 50 mg) was 1 (50) Number (%) of patients, the anxiety ([7]; AZD7325 50 mg) was 0 Number (%) of patients and the dizziness ([7]; AZD7325 50 mg) was 0 Number (%) of patients. The euphoric mood ([7]; AZD7325 50 mg) was 0 Number (%) of patients, the hypoaesthesia ([7]; AZD7325 50 mg) was 0 Number (%) of patients and the paraesthesia ([7]; AZD7325 50 mg) was 0 Number (%) of patients. For the same compound, the somnolence ([7]; AZD7325 50 mg) was 0 Number (%) of patients, the “Number of subjects” value ([7]; AZD7325 75 mg) was 4 (67) Number (%) of patients and the anxiety ([7]; AZD7325 75 mg) was 0 Number (%) of patients. The dizziness ([7]; AZD7325 75 mg) was 0 Number (%) of patients, the euphoric mood ([7]; AZD7325 75 mg) was 3 (50) Number (%) of patients and the hypoaesthesia ([7]; AZD7325 75 mg) was 0 Number (%) of patients. The paraesthesia ([7]; AZD7325 75 mg) was 1 (17) Number (%) of patients, the somnolence ([7]; AZD7325 75 mg) was 0 Number (%) of patients and the “Number of subjects” value ([7]; AZD7325 100 mg) was 4 (67) Number (%) of patients. The anxiety ([7]; AZD7325 100 mg) was 1 (17) Number (%) of patients, the dizziness ([7]; AZD7325 100 mg) was 2 (33) Number (%) of patients and the euphoric mood ([7]; AZD7325 100 mg) was 1 (17) Number (%) of patients. The hypoaesthesia ([7]; AZD7325 100 mg) was 0 Number (%) of patients, the paraesthesia ([7]; AZD7325 100 mg) was 0 Number (%) of patients and the somnolence ([7]; AZD7325 100 mg) was 1 (17) Number (%) of patients. The “anxiolytic effect in patients with generalized anxiety disorder” value [8] was “only a weak anxiolytic effect”.
